In ChEMBL document CHEMBL4371019, “Sanguiin H-11 from Sanguisorbae radix protects HT22 murine hippocampal cells against glutamate-induced death” (2019):
Activity calls are given as the source filed them. The rule behind the calls is not given here.

How the values were obtained:
HT-22 [1] = test: Inhibition of glutamate-induced apoptosis in mouse HT22 cells assessed as apoptotic cells at 10 uM after 12 hrs by AlexaFluor 488-Annexin V/propidium iodide staining-based assay (reference value: 54%); assay type: functional; conditions: HT-22, 12 h
HT-22 [2] = test: Neuroprotective activity against glutamate-induced neuronal cell death in mouse HT22 cells at 10 to 20 uM by microscopic analysis; assay type: functional, cell-based
HT-22 [3] = test: Neuroprotective activity against glutamate-induced neuronal cell death in mouse HT22 cells assessed as increase in cell viability at 20 to 50 uM after 24 hrs by MTT assay; assay type: functional, cell-based
HT-22 [4] = test: Neuroprotective activity against glutamate-induced neuronal cell death in mouse HT22 cells assessed as reduction in intracellular calcium level at 10 to 20 uM after 8 hrs by fluorescence microscopic analysis; assay type: functional, cell-based
HT-22 [5] = test: Antioxidant activity in mouse HT22 cells assessed as reduction in glutamate-induced increase in intracellular reactive oxygen species level at 10 to 20 uM after 8 hrs by H2DCFDA staining based fluorescence microscopic analysis; assay type: functional, cell-based
[6] = Antioxidant activity assessed as DPPH free radical scavenging activity up to 15 uM incubated for 30 mins; assay type: functional
[7] = molecular target: MAP kinase p38 (Mus musculus) (UniProt P47811+O08911+Q9WUI1+Q9Z1B7); test: Inhibition of glutamate-induced p38 MAPK phosphorylation in mouse HT22 cells at 10 to 20 after 8 hrs by Western blot analysis; assay type: cell-based
Mus musculus = species: Mus musculus; test: Inhibition of glutamate-induced JNK phosphorylation in mouse HT22 cells at 10 to 20 after 8 hrs by Western blot analysis; assay type: cell-based
[8] = molecular target: Mitogen-activated protein kinase 1 and 3 (ERK2 and ERK1) (Mus musculus) (UniProt P63085+Q63844); test: Inhibition of glutamate-induced ERK1/2 phosphorylation in mouse HT22 cells at 10 to 20 after 8 hrs by Western blot analysis; assay type: cell-based
HT-22 [9] = test: Inhibition of glutamate-induced apoptosis in mouse HT22 cells assessed as apoptotic cells at 20 uM after 12 hrs by AlexaFluor 488-Annexin V/propidium iodide staining-based assay (reference value: 54%); assay type: functional; conditions: HT-22, 12 h
HT-22 [10] = test: Neuroprotective activity against glutamate-induced neuronal cell death in mouse HT22 cells assessed as increase in cell viability at 0.5 to 5 uM after 24 hrs by MTT assay; assay type: functional, cell-based

Mitogen-activated protein kinase 1 and 3 (ERK2 and ERK1) (Mus musculus), sequence (P63085 whole entry, looked up): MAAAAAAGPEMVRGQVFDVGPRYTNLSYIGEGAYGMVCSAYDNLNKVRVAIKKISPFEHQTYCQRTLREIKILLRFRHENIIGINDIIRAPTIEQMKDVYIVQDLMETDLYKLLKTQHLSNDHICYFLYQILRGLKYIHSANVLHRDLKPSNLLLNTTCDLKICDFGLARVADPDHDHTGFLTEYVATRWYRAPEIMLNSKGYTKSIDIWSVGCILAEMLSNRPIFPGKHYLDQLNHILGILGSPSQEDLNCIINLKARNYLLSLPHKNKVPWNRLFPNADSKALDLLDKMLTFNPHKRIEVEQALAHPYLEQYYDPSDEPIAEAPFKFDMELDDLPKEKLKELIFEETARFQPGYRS
Mitogen-activated protein kinase 1 and 3 (ERK2 and ERK1) (Mus musculus), sequence (Q63844 whole entry, looked up): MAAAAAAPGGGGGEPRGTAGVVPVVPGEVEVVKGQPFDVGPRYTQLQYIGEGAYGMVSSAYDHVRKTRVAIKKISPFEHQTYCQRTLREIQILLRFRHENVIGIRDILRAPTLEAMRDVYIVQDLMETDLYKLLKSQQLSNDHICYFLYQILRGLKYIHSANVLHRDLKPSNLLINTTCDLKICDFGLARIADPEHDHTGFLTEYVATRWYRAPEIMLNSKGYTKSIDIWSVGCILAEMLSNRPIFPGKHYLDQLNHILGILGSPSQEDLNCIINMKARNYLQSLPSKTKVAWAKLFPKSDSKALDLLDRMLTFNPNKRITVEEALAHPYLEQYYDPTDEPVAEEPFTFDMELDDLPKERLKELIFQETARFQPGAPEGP

Row | SMILES | inhibition at 10 µM (HT-22 [1]) | Activity (HT-22 [2]) | Activity (HT-22 [3]) | Activity (HT-22 [4]) | Activity (HT-22 [5]) | Activity [6] | inhibition [7] | inhibition (Mus musculus) | inhibition [8] | inhibition at 20 µM (HT-22 [9]) | Activity (HT-22 [10])
1 | O=C(O[C@@H]1O[C@@H]2COC(=O)c3cc(O)c(O)c(O)c3-c3c(cc(O)c(O)c3O)C(=O)O[C@H]2[C@@H]2OC(=O)c3cc(O)c(O)c(O)c3-c3c(cc(O)c(O)c3O)C(=O)O[C@@H]12)c1cc(O)c(O)c(O)c1 | 12.7% | Active | Active | Active | Active | Active | Active | Active | Active | 8.5% | –
2 | CC(=O)N[C@@H](CS)C(=O)O | – | – | – | – | – | – | – | – | – | – | Active
